Assay results taken from patent US12503456B2, “Substituted pyrimidines and 1,3,5-triazines as RHOJ inhibitors” (Fondazione Istituto Italiano Di Tecnologia, priority 2017, dated 2025).
Like-named read-outs stand apart in the source and are kept apart here.

What was measured:
Assay type in all cases: cell-based
melanoma cells = assay: Cell viability assay (Cell Titer-Glo), inhibitor alone or with Cisplatin
Description: Cells were seeded at 10,000 cells/well in 96-well plates and incubated for 24 h at 37° C. with 5% CO2. […] The cell viability was determined using the Cell Titer-Glo luminescent cell viability assay kit (Promega, Madison, WI), according to the manufacturer's instructions. Luminescence was measured using a DTX 800 microplate reader (Coulter). The half-maximal inhibitory concentration (IC50) values were calculated using the GraphPad Prism software. The assay was done by conducting 3 independent experiments.

WM3248 melanoma cells = assay: Flow cytometric analyses for apoptosis (Annexin V and PI); details: 24 hours, FIG. 1
Description: Approximately 1×10^6 melanoma cells treated with inhibitors for 24 hours and were then trypsinized and washed with PBS, the single-cell suspensions were incubated with Alexa Fluor-Annexin V and propidium iodide (PI) (V13245; Invitrogen) per the manufacturer's protocol and were subjected to flow cytometric analysis. In all cases, cell debris was gated out on the basis of forward scatter and side scatter analysis. Data was analyzed using FlowJo (Ashland, OR). Results are illustrated in FIG. 1, wherein WM3248 melanoma cells were treated with the indicated doses of compound 1 (ARN12405) and apoptosis was measured by flow cytometry using Annexin V and PI.

RhoJ PAK interaction = biological target: T1, RhoJ PAK interaction (Homo sapiens, UniProt Q9H4E5); assay: Cdc42 activation assay (PAK1 PBD bead pull-down, immunoblot); details: cell lysates from WM3248 cells, PAK coupled beads, FIG. 2
T1 construct: host or cells: WM3248 cells
T1 sequence (Q9H4E5 1-211 limits assumed): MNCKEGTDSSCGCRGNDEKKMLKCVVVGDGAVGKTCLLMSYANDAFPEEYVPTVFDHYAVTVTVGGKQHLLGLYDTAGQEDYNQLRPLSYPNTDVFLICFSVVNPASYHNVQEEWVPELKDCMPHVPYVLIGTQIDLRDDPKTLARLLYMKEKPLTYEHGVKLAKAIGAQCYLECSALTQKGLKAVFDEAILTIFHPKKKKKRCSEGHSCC
Description: A Cdc42 activation assay was performed according the manufacturer's protocol (Cell Biolabs, San Diego, CA). Briefly, cells treated with the inhibitor were lysed and either loaded with GDP or GTPyS. Agarose beads conjugated with the PAK1 PBD domain pulled down Cdc42, Rac1, or RhoJ only when GTP-bound. Lysates were then immunoblotted with indicated Abs. Results are illustrated in FIG. 2. […] Briefly, cells were treated with compound 1 (ARN12405) and cell lysates were prepared and incubated with PAK coupled beads. Immunoprecipitated proteins were subjected to SDS PAGE and immunoblotted with a (A) RhoJ antibody, (B) Cdc42 antibody, (C) Rac1 antibody, (D) Cells were treated with one of a panel of RhoJ interaction inhibitors at a concentration of 10 μm or 50 μm (see FIG. 2, panels A-D). Lysates were prepared, incubated with PAK coupled beads, and immunoprecipitated proteins were immunoblotted with a RhoJ antibody.

[1] = inhibitor (1.25-50 μM) with Cisplatin at 20 μM, 24 hours, Cell Titer-Glo, 3 independent experiments, read-out: IC50 (CisPt)

Structure (SMILES) | IC50 (melanoma cells; [1]) [µM] | also measured
Clc1ccc(Nc2cc(-c3ccccn3)nc(C3CCCNC3)n2)cc1 (stereo not shown) [Compound 3] | 38.2 | 
Clc1ccc(Nc2cc(-c3cccnc3)nc(C3CCCNC3)n2)cc1 (stereo not shown) [Compound 2] | 11.5 | 
CN(C)c1ccc(Nc2cc(-c3ccccc3)nc(C3CCCNC3)n2)cc1 (stereo not shown) [Compound 8, N1,N1-dimethyl-N4-[6-phenyl-2-(3-piperidyl)pyrimidin-4-yl]benzene-1,4-diamine] | 31.4 | 
CN(C)c1ccc(Nc2cc(-c3ccccc3)nc(C3CCOCC3)n2)cc1 [Compound 16, N4,N4-dimethyl-N1-(6-phenyl-2-tetrahydropyran-4-yl-pyrimidin-4-yl)benzene-1,4-diamine] | > 50 | IC50 (melanoma cells; 24 h, read-out: IC50 (alone)): > 50 µM
Clc1cccc(Nc2cc(-c3ccncc3)nc(C3CCCNC3)n2)c1 (stereo not shown) [Compound 5] | 42.3 | 
CN(C)c1ccc(Nc2cc(-c3ccccc3)nc(C3CCNCC3)n2)cc1 [Compound 12, N4,N4-dimethyl-N1-[6-phenyl-2-(4-piperidyl)pyrimidin-4-yl]benzene-1,4-diamine] |  | IC50 (melanoma cells; 24 h, read-out: IC50 (CisPt)): 86.3 µM
Fc1ccc(-c2cc(Nc3ccccc3)nc(C3CCCNC3)n2)cc1 (stereo not shown) [Compound 7] | 32 | 
COc1cccc(Nc2cc(-c3ccccc3)nc(C3CCNCC3)n2)c1 [Compound 15, N-(3-methoxyphenyl)-6-phenyl-2-(4-piperidyl)pyrimidin-4-amine] | 22.2 | 
COc1cccc(Nc2cc(-c3ccccc3)nc(C3CCCNC3)n2)c1 (stereo not shown) [Compound 11, N-(3-methoxyphenyl)-6-phenyl-2-(3-piperidyl)pyrimidin-4-amine] | 27.8 | 
CN(C)c1cccc(Nc2cc(-c3ccccc3)nc(C3CCNCC3)n2)c1 [Compound 14, N3,N3-dimethyl-N1-[6-phenyl-2-(4-piperidyl)pyrimidin-4-yl]benzene-1,3-diamine] | 17.2 | 
Clc1ccc(Nc2cc(-c3ccccc3)nc(C3CCCNC3)n2)cc1 (stereo not shown) [Compound 4] | 7 | 
CN(C)c1cccc(Nc2cc(-c3ccccc3)nc(C3CCCNC3)n2)c1 (stereo not shown) [Compound 10, N3,N3-dimethyl-N1-[6-phenyl-2-(3-piperidyl)pyrimidin-4-yl]benzene-1,3-diamine] |  | IC50 (melanoma cells; 24 h, read-out: IC50 (alone)): 45 µM
Clc1ccc(Nc2cc(-c3ccncc3)nc(C3CCCNC3)n2)cc1 (stereo not shown) [Compound 1] | 12.8 | apoptosis measured by flow cytometry using AnnexinV and PI (WM3248 melanoma cells): apoptosis induced; RhoJ PAK interaction in cell lysates (SDS PAGE and immunoblotting) (RhoJ PAK interaction): block of RhoJ PAK interaction
COc1ccc(Nc2cc(-c3ccccc3)nc(C3CCNCC3)n2)cc1 [Compound 13, N-(4-methoxyphenyl)-6-phenyl-2-(4-piperidyl)pyrimidin-4-amine] | 36.7 | 
COc1ccc(Nc2cc(-c3ccccc3)nc(C3CCCNC3)n2)cc1 (stereo not shown) [Compound 9, N-(4-methoxyphenyl)-6-phenyl-2-(3-piperidyl)pyrimidin-4-amine] | > 50 | IC50 (melanoma cells; 24 h, read-out: IC50 (alone)): > 50 µM
COc1ccc(-c2cc(Nc3ccc(Cl)cc3)nc(C3CCCNC3)n2)cc1 (stereo not shown) [Compound 6] | 17 | 
COc1ccc(Nc2cc(-c3ccccc3)nc(C3CCOCC3)n2)cc1 [Compound 17, N-(4-methoxyphenyl)-6-phenyl-2-tetrahydropyran-4-yl-pyrimidin-4-amine] | > 50 | IC50 (melanoma cells; 24 h, read-out: IC50 (alone)): > 50 µM
